Test results as given in patent US20080145886A1, “Assay for Cytochrome P450 Isoforms 3A4 and 3A5” (priority 2004, published 2008).

What was measured:
CYP3A4/5 [1] = target: T1, CYP3A4/5 (Homo sapiens, UniProt P08684); test: in vitro; details: pH 7.6; for IC50: microsomes
Experimental: Pooled HLM were obtained from Gentest Corp. (Woburn, Mass.). Inhibitors were added to the reaction mixture from stock solutions in DMSO, giving a final solvent concentration of 0.6% (v/v). No inhibitor controls contained an equivalent amount of vehicle. Following preincubation for 10 minutes at 37° C., reactions were started by addition of 1 mM NADPH and an NADPH regenerating system containing 5 mM glucose-6-phosphate, 3 mM MgCl2, and 1 U/mL glucose-6-phosphate dehydrogenase. Assays were conducted for 10 minutes at 37° C. and stopped by addition of HCl to a final concentration of 0.1 N. Plates were then centrifuged for 10 minutes in a microplate rotor and supernatants loaded into the wells of a preconditioned 30 mg OASIS 96-well HLB plate. OASIS HLB 96 well extraction plates containing 10 or 30 mg of OASIS sorbent and vacuum manifold were purchased from Waters Corp. Vacuum was applied and the void volume collected in the collection plate. Then, 200 μL of water was added, vacuum was applied again, and the wash was collected into the same plate. This step was repeated. Pooled void volume and water washes were transferred into scintillation vials and counted in a beta-scintillation counter. Alternatively, aliquots were counted in […] scintillation plates using a TOPCOUNT scintillation counter (Packard, Perkin Elmer, Boston, Mass.). For the calculation of enzyme activity, product counts were corrected by subtraction of counts obtained in control incubations performed in the absence of NADPH regenerating system.
Total radioactivity was 100,000 to 200,000 dpm, reaction volume was 100 μL, and solvent concentration (coming from inhibitor stock solutions) was 0.3-0.7% DMSO and 0.5% acetonitrile (v/v). […] Radioactivity was determined using a Beckman beta scintillation counter, or by counting 120 μL aliquots in 96-well scintillation plates using a TOPCOUNT scintillation counter. […]
Without using the known ^TV/K ratio (which would be tautological, since it was derived from SAP), v′, the apparent formation rate of unlabelled product, can be calculated. […]

CYP3A4/5 [2] = tested on: CYP3A4/5
Experimental: Cryopreserved human hepatocytes from two different donors were obtained from Tissue Transformation Technologies (Edison, N.J.). […] CYP3A4/5 enzyme activity was then determined as follows.
The incubation medium was then loaded onto individual wells of preconditioned 30 mg OASIS plates, which were washed two times with 200 μL of water. For each well, the flow-through was combined with the water washes and counted in a beta-counter after addition of scintillation fluid. 6-p-hydroxytestosterone was eluted from the OASIS plates with 1 mL of methanol, dried under N2, and reconstituted in 200 uL of 50% acetonitrile/water (50:50) containing 0.1% of formic acid. Aliquots were injected into an HPLC-MS/MS system for quantification of 6β-hydroxytestosterone. Quantification was based on comparison of peak areas with those of a standard curve that was treated and extracted exactly like unknown samples.

CYP3A4/5 [3] = target: T1, CYP3A4/5; details: human hepatocytes, 200 μM testosterone, 10 μM ketoconazole, 1 hour
Experimental: For each well, the flow-through was combined with the water washes and counted in a beta-counter after addition of scintillation fluid.
Aliquots were injected into an HPLC-MS/MS system for quantification of 6β-hydroxytestosterone. Quantification was based on comparison of peak areas with those of a standard curve that was treated and extracted exactly like unknown samples.

CYP3A4/5 [4] = target: T1, CYP3A4/5; test: in vitro; details: microsomes
Experimental: Quantification of 6β-hydroxytestosterone and 2β-hydroxytestosterone. Aliquots of the assay reaction mixture and of metabolite standard curves were analyzed by HPLC using an Agilent HP1100 liquid chromatograph (Agilent Technologies) equipped with a CTC Analytics PAL autosampler (HTS PAL; CTC Analytics AG, Switzerland). Chromatography was performed on an XTERRA MS C18 column (4.6 mm×5 cm; 5 μm; Waters Corp.) at a flow rate of 1 mL/min, using a mobile phase consisting of a mixture of 0.1% formic acid in water (A) and 0.1% formic acid in acetonitrile (B) (linear gradient for 4 min from 5-100% B; 2 min at 100% B). The eluant was diverted to waste for the first minute, and then to a Sciex API-2000 triple quadrupole mass spectrometer with a Turbo Ionspray ionization source operated in the positive ion mode. […] Metabolite concentrations were determined by weighted linear least-squares regression analysis of peak area ratios vs. those of a standard curve, using Analyst Quantitation Wizard software version 1.4.

CYP3A4/5 [5] = target: T1, CYP3A4/5; details: HLM
CYP3A4/5 [6] = target: T1, CYP3A4/5; details: HLM; remark: listed apart in the source
CYP3A4 = CYP3A4 (Homo sapiens, UniProt P08684); details: read-out: IC50 (Draper et al.); competitive substrate; cited from earlier work
Chain of CYP3A4 (P08684 whole entry): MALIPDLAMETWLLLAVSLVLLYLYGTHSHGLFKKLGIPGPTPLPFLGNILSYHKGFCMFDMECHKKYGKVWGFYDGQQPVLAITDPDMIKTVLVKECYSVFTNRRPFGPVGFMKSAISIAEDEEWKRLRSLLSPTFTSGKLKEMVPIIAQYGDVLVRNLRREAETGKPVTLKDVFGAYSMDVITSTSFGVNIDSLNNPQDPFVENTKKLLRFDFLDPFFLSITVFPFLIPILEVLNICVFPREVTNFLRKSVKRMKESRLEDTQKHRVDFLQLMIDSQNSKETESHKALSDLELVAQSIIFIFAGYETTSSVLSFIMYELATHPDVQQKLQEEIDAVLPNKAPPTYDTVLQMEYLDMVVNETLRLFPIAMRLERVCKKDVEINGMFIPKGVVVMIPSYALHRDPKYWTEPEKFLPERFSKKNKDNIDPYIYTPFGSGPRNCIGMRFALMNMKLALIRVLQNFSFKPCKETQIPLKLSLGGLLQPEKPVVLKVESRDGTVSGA

T1 sequence (P08684 2-503): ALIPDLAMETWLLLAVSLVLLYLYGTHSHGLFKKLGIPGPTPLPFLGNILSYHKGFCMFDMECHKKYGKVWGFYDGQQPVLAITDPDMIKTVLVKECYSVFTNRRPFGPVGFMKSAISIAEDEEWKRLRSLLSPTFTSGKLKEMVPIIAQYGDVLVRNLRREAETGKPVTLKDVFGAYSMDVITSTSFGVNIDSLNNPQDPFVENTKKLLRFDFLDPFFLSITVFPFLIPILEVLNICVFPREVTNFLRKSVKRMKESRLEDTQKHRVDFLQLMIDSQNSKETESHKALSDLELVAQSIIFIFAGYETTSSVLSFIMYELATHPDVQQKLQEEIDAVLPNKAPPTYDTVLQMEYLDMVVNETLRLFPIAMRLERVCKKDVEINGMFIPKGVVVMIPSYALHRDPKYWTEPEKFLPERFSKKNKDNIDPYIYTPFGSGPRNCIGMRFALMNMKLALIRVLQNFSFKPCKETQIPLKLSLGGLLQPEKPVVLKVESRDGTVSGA

Structure (SMILES): Clc1ccc(COC(Cn2ccnc2)c2ccc(Cl)cc2Cl)c(Cl)c1 (stereo not shown) [Miconazole]
- IC50 (CYP3A4/5 [1]): 0.06 ± 0.01 µM

Structure (SMILES): CC(=O)N1CCN(c2ccc(OCC3COC(Cn4ccnc4)(c4ccc(Cl)cc4Cl)O3)cc2)CC1 (stereo not shown) [Ketoconazole]
- Inhibition of 6β-hydroxytestosterone formation in cultured hepatocytes (CYP3A4/5 [2]): almost completely inhibited
- Inhibition of [^3H]-H2O formation in cultured hepatocytes (CYP3A4/5 [2]): almost completely inhibited
- Formation rate of 6β-hydroxytestosterone (CYP3A4/5 [3]): Not detected

Structure (SMILES): CC(C)C[C@H]1C(=O)N2CCC[C@H]2[C@]2(O)O[C@](NC(=O)[C@@H]3C=C4c5cccc6[nH]c(Br)c(c56)C[C@H]4N(C)C3)(C(C)C)C(=O)N12 [Bromocriptine]
- IC50 (CYP3A4/5 [4]): 1.4 ± 0.01 µM
- IC50 (CYP3A4/5 [1]): 1.2 ± 0.3 µM

Structure (SMILES): C[C@]12CC[C@H]3[C@@H](CCC4=CC(=O)CC[C@@]43C)[C@@H]1CC[C@@H]2O [testosterone]
- V′max (apparent maximal rate of product formation) (CYP3A4/5 [1]): 1.3 ± 0.1 nmol/min/mg

Structure (SMILES): COC(=O)C1=C(C)NC(C)=C(C(=O)OCCN(C)Cc2ccccc2)C1c1cccc([N+](=O)[O-])c1 (stereo not shown) [Nicardipine]
- n (Hill coefficient) Radiometric (CYP3A4/5 [5]): 2.5
- n (Hill coefficient) LC-MS (CYP3A4/5 [6]): 2.7

Structure (SMILES): CC[C@H]1OC(=O)[C@H](C)[C@@H](O[C@H]2C[C@@](C)(OC)[C@@H](O)[C@H](C)O2)[C@H](C)[C@@H](O[C@@H]2O[C@H](C)C[C@H](N(C)C)[C@H]2O)[C@](C)(O)C[C@@H](C)C(=O)[C@H](C)[C@@H](O)[C@]1(C)O [erythromycin]
- IC50 (CYP3A4): 130 µM
